Measurements: patent US20050026219A1, “Process for label-free measurement of modified substrate” (Boehringer Ingelheim Pharma GmbH & Co. KG, priority 2001, published 2005)
Like-named read-outs stand apart in the source and are kept apart here. Each block holds one molecule with its values, some of them ahead of it. Ends that are not written are not given here.

Columns and labels:
[1] = Layer thickness formation (binding) on the phospho-tyrosine-diamino-PEG 2000 sensor surface, RIfS; settings: for Optical layer thickness (non-specific binding) / Optical layer thickness (binding): EGF-RK buffer
Description: (§1) A conventional aminodextrane (AMD) sensor or a diamino PEG 2000 sensor is used (e.g. Schütz A., 2000; a) Piehler J., et al., 1996; Universität Tübingen, Inst. f. Physikalische and Theoretische Chemie, Germany.)
(§2) 20 μl aliquots of the final solution are immediately added drop by drop to the sensor surface which is about 1 cm^2 in size, and incubated for 8 hours under DMF chamber saturation. Then the sensor is rinsed with DMF and dried in the air.

[2] = Layer thickness formation (binding) on the phospho-tyrosine-AMD sensor surface, RIfS; settings: for Optical layer thickness (increase): Hepes buffer pH 7.40, Raytide EL or antibody 1.0 μg/50 μl, kinase 1 Unit/50 μl
Description: as §1, §2
The buffer used is p60c-src-kinase buffer, pH=7.40, with the final concentrations of 50 mM of Hepes and 30 mM of magnesium chloride in the incubation mixture.
The layer thickness formation of p60c-src-kinase (1 Unit/50 μl) in the presence of Brij 35 is investigated. […] Increasing concentrations of Brij 35 (% v/v) are added to the buffer.
Use of alternative substrates, kinase and sensors in a process according to the invention. […] The buffer used is Hepes buffer pH=7.40 with 50 mM of Hepes and 30 mM of magnesium chloride. The buffer contains 0.5% v/v mercaptoethanol, 0.05% v/v Brij 35 and 10 μg/50 μl albumin.
First, the antibody, then the kinase and the substrate are measured on their own in order to be able to evaluate any non-specific binding.

EGF-RK = EGF-RK (Homo sapiens, UniProt P00533); settings: cited from earlier work
[3] = target: EGF-receptor kinase (EGF-RK) (Homo sapiens, UniProt P00533); settings: for Optical layer thickness: PGT 10 μg/50 μl, EGF-RK 1 Unit/50 μl, EGF-RK buffer with Brij 35
Description: The quantity depends mainly on the volumes which are still to be pipetted, the buffer being intended to make the volume of the phosphorylation assay up to the total of 100 μl.
Then 10 μl of 10% (v/v) DMSO solution are added, or if a substance is to be tested for possible enzyme-modulating properties, 10 μl of a test substance, i.e. a possible inhibitor or activator, dissolved in 10% (v/v) of DMSO, are pipetted in.
If an enzymatic reaction is to take place, the enzyme is added at this stage.
Then the substrate is added. The amounts of the substrates Poly-(Glu, Tyr) 4:1, (SEQ ID NO.:2) M-2165 and (SEQ ID NO.:3) Raytide™ EL used are specified in each case.
The reaction of phosphorylation is started here by the addition of 10 μl of the 1 mM ATP solution.
The incubation time is 30 minutes at +30° C., for example.
After the end of the incubation period, 20 μl of antibody solution (1.6.) are pipetted in, for example. The receptor, in this case the antibody, is used in excess. The amount which corresponds to an excess can very easily be determined by anyone skilled in the art by means of experiments on binding to a sensor surface to which a substance with a receptor binding site is coupled, with increasing amounts of receptor. In the case of reactions of phosphorylation, increasing amounts of receptor are used with a constant amount of substrate and kinase.
The incubation time with the antibody may be, for example, 30 minutes at ambient temperature.
After the end of the incubation period 50 μl of incubation mixture are taken and pipetted into the prepared measuring cell with the sensor to whose surface is coupled a substance with a receptor binding site.
The layer thickness of the sensor is measured, for example, by Reflectometric Interference Spectroscopy (RIfS) using a SPEKOL 1100 simultaneous spectral photometer made by Messrs Zeiss Jena, modified according to Schmitt et al. 1997.
The receptor (in this case the antibody) is used in excess, so that even if there is a total enzymatic reaction (in this case phosphorylation) of the substrate at least a slight binding signal will still be obtained by the binding of the receptor (antibody) to the sensor surface.
The reaction of phosphorylation is started by the addition of ATP.
At the start of the experiment a control and a complete phosphorylation without the addition of inhibitor are carried out.

[4] = Table 8: EGF-RK buffer with Brij 35, substrate 10 μg/50 μl, EGF-RK 0.1 Unit/50 μl, EGF 0.5 μg/50 μl

EGF-receptor kinase (EGF-RK), sequence (P00533 25-1210): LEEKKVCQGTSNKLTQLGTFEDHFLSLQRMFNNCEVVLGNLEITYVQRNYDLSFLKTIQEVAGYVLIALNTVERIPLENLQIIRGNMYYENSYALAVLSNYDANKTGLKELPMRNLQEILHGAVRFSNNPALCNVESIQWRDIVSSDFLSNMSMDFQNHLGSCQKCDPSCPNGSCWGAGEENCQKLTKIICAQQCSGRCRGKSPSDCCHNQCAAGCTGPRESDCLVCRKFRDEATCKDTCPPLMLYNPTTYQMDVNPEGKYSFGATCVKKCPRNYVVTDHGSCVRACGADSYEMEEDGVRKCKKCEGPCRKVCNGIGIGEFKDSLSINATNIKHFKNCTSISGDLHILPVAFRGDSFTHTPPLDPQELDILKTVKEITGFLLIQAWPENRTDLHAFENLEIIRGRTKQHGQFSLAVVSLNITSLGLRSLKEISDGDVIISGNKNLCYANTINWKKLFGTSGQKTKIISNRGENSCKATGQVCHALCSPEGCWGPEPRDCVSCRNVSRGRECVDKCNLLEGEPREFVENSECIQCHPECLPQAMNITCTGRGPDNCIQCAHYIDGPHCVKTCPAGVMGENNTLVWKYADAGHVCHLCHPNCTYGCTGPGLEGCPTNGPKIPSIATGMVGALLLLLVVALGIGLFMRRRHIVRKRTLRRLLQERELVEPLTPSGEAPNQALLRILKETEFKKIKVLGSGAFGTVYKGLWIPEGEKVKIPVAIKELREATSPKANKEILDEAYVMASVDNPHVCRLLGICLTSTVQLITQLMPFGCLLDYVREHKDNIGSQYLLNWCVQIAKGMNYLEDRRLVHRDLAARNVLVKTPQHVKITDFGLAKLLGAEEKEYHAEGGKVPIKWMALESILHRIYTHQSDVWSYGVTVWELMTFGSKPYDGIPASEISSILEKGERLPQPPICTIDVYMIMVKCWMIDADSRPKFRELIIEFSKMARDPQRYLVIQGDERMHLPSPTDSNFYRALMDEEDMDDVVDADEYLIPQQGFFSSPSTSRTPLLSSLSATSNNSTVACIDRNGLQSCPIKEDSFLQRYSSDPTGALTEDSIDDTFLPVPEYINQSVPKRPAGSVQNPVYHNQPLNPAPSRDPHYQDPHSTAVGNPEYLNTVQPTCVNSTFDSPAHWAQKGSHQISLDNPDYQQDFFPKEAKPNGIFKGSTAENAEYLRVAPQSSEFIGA
EGF-RK, sequence (P00533 25-1210): as above

Molecule: Ac-Ile-Tyr-Gly-Glu-Phe-NH2 (Ac-IYGEF-NH2; also: phosphorylated, site not given here) [M-2165, Oligopeptide kinase substrate, Messrs; Bachem]
Optical layer thickness, component on its own ([1]; Table 13 a: Hepes buffer pH 7.40, 0.5% mercaptoethanol, 0.05% Brij 35, albumin 10 μg/50 μl, M-2165 10 μg/50 μl, p60c-src-kinase 2 Units/50 μl): 0.285 nm
Optical layer thickness, component on its own ([2]; Table 13: Hepes buffer pH 7.40, 0.5% mercaptoethanol, 0.05% Brij 35, albumin 10 μg/50 μl, M-2165 10 μg/50 μl, p60c-src-kinase 4 Units/50 μl): 0.230 nm

Molecule: O=CN/C=C/c1cc(O)ccc1O [Erbstatin]
Inhibitor strength described in the literature (EGF-RK): weak inhibitor

Molecule: EGF: Epidermal Growth Factor, activator for phosphorylation with EGF-RK
Optical layer thickness (binding) ([1]; EGF 0.5 Units + Brij 35 (0.01% v/v)): 0.320 nm
Optical layer thickness (binding) ([1]; EGF 0.5 Units, no Brij 35): 0.814 nm
Optical layer thickness (binding) ([1]; EGF 1.0 Units + Brij 35 (0.01% v/v)): 0.484 nm
Optical layer thickness (binding) ([1]; EGF 1.0 Units, no Brij 35): 0.833 nm
Optical layer thickness, component on its own [1, 4]: 0.355 nm

Molecule: COC(=O)/C=C/c1cc(O)ccc1O [erbstatin analogue, Erbstatin Analogue]
Optical layer thickness ([3]; 10^-3M inhibitor): 1.170 nm
Optical layer thickness ([3]; 10^-4M inhibitor): 0.728 nm
Optical layer thickness ([3]; 10^-5M inhibitor): 0.702 nm
Optical layer thickness ([3]; 10^-6M inhibitor): 0.442 nm
Optical layer thickness ([3]; 10^-7M inhibitor): 0.489 nm
Optical layer thickness ([3]; 10^-8M inhibitor): 0.526 nm
Inhibition of phosphorylation ([3]; up to 10^-3M): incomplete even at higher concentrations

Continued, values first:

Optical layer thickness, component on its own ([1]; Table 12: EGF-RK buffer with Brij 35, Raytide EL 2 μg/50 μl, EGF-RK 0.5 Units/50 μl): 0.127 nm
Optical layer thickness (increase) ([2]; with 0.001% Brij 35 (v/v)): 0.067 nm
Optical layer thickness (increase) ([2]; with 0.002% Brij 35 (v/v)): 0.083 nm
Optical layer thickness (increase) ([2]; with 0.01% Brij 35 (v/v)): 0.000 nm
Optical layer thickness (increase) ([2]; with 0.02% Brij 35 (v/v)): 0.000 nm
Optical layer thickness (increase) ([2]; with 0.1% Brij 35 (v/v)): 0.000 nm
Optical layer thickness (increase) ([2]; with 0.2% Brij 35 (v/v)): 0.000 nm
Optical layer thickness (increase) ([2]; without Brij 35): 0.169 nm
Molecule: Lys-Lys-Lys-Gly-Pro-Trp-Leu-Glu-Glu-Glu-Glu-Glu-Ala-Tyr-Gly-Trp-Leu-Asp-Phe (KKKGPWLEEEEEAYGWLDF; also: phosphorylated modified substrate, site not given here) [Raytide ™ EL, Protein-tyrosine-kinase substrate, Messrs; Calbiochem]

Optical layer thickness (non-specific binding) ([1]; 0.5 μg PGT): 0.064 nm
Optical layer thickness (non-specific binding) ([1]; 1.0 μg PGT): 0.026 nm
Optical layer thickness (non-specific binding) ([1]; 2.0 μg PGT): 0.000 nm
Optical layer thickness (non-specific binding) ([1]; 5.0 μg PGT): 0.052 nm
Optical layer thickness (non-specific binding) ([1]; 10 μg PGT): 0.065 nm
Optical layer thickness (non-specific binding) ([1]; 20 μg PGT): 0.054 nm
Optical layer thickness (non-specific binding) ([1]; 50 μg PGT): 0.113 nm
Optical layer thickness (non-specific binding) ([1]; 100 μg PGT): 0.084 nm
Optical layer thickness, component on its own [1, 4]: 0 nm
Optical layer thickness, component on its own ([1]; Table 9: EGF-RK buffer with Brij 35, substrate 10 μg/50 μl, EGF-RK 2 Units/50 μl): 0 nm
Molecule: Poly-(Glu, Tyr) 4:1 [PGT]
